Reference: patent US10597696B2, “Detection of Niemann-Pick disease comprising detection of lysozyme and cathepsins” (UNIVERSITY OF NOTRE DAME DU LAC, priority 2013, dated 2020)

Columns and labels:
NPC patients [1] = test: Plasma cathepsin S level in Miglustat-treated NPC patients; format: in vivo, human; settings: patients treated with Miglustat vs untreated NPC patients
From the text: (§1) A major hurdle is that inflammatory products of cerebral disease are not easily detected in blood. Inflammation in multiple organs and heterogeneity in disease present additional challenges in distinguishing the extent to which a blood based marker reflects disease in brain or other afflicted organs. We utilized murine models of the monogenetic disorder Niemann Pick Type C (NPC) that present aggressive forms of cerebral and liver inflammatory disease to identify secretory biomarkers for neuroinflammation. […] We utilized 2-hydroxypropyl-beta-cyclodextrin (HPβCD; an emerging therapeutic) administered intraperitoneally in mice, which abrogates inflammatory pathology in the liver but has limited effect on the brain. By analyzing the corresponding effects on inflammatory plasma proteins, we identified cathepsin S as a lead indicator of liver disease. In contrast lysozyme was a marker of both brain and liver disease. The study was extended on human samples. The level of lysozyme and cathepsin S were determined in the plasma samples from healthy individuals (age and gender matched), untreated NPC patients and Miglustat (also known as Zavesca) treated NPC patients. […] The plasma concentration of these two markers in untreated and Miglustat treated NPC samples when analyzed together yielded a composite score to assess extent of neurodegeneration. […]

NPC patients [2] = test: Plasma lysozyme level in Miglustat-treated NPC patients; format: in vivo, human; settings: Miglustat-treated NPC samples vs untreated NPC and healthy controls
From the text: as §1

## CCCCN1C[C@H](O)[C@@H](O)[C@H](O)[C@H]1CO [Miglustat]
NPC patients [1]
  plasma cathepsin S: further elevated
NPC patients [2]
  plasma lysozyme level: reduced compared to untreated NPC patients and were equivalent to healthy controls
